# Data reported in US20140309275A1, “Sphingosine Analogs, Compositions, and Methods Related Thereto” (Emory University, priority 2011, published 2014).
# Like-named read-outs stand apart in the source and are kept apart here.
# Assays:
# [1] = test system: P. falciparum chloroquine susceptible (CQ-S) D6 strain; experiment: [3H]-labeled hypoxanthine uptake assay, P. falciparum D6; type: cell-based; settings: Plasmodium falciparum, read-out: IC50 D6
# From the text: (§1) The [^3H]-labeled hypoxanthine uptake method was utilized to assay the effectiveness of our sphingoid base analogs in vitro for their ability to inhibit the growth and replication of malaria parasites in RBCs. […] The simian malaria parasite P. knowlesi has also been recognized as a human pathogen of public health concern in South East Asia, and it can be cultured effectively in vitro. This species was therefore included to probe the potential of multi-species efficacy within this compound class.
# (§2) Cryopreserved iRBCs were provided by Dr. John W. Barnwell from the Centers for Disease Control and Prevention and maintained in in vitro culture as described in Trager & Jensen, Science 1976, 193 (4254), 673-5.
# (§3) Compounds in Table 1 were dissolved in 70% 200-proof pharmaceutical grade ethanol, and a working solution of 0.2 mg/mL was prepared using hypoxanthine- and gentamicin-free incomplete RPMI 1640 (Gibco). Compounds in Table 2 were dissolved in 200 proof pharmaceutical grade ethanol at a concentration of 50 μM and then conjugated to BSA (Sigma) as described.^5 A working solution of 0.2 mg/mL was prepared using hypoxanthine- and gentamicin-free incomplete RPMI 1640 (Gibco). Two compounds were tested per plate in triplicate starting at 0.2 mg/mL and diluted two-fold down to 0.019 μg/mL using hypoxanthine- and gentamicin-free RPMI.
# (§4) Parasite inoculum was prepared by mixing parasitized blood, uninfected 0+RBCs (for P. falciparum strains) or rhesus RBCs (for P. knowlesi) and culture medium (deficient in hypoxanthine and gentamicin) to a final concentration of 1% parasitemia and 1% haematocrit. A negative control was prepared by diluting uninfected erythrocytes to 1% haematocrit in culture medium. [^3H]-labeled hypoxanthine was added at 24 h (for P. falciparum strains) or 12 h (P. knowlesi) and the culture was collected 48 h or 12 h later for P. falciparum or P. knowlesi, respectively. [^3H] uptake was measured by using a scintillation spectrophotometer (Wallac Oy 1450 MicroBeta reader).
# (§5) Triplicate wells were used to calculate the IC50 for each compound using the software XLFit v5.2 using the sigmoidal model 601. Average and standard deviations were calculated using Microsoft Excel.
# [2] = test system: P. falciparum chloroquine resistant (CQ-R) W2 strain; experiment: [3H]-labeled hypoxanthine uptake assay, P. falciparum W2; type: cell-based; settings: Plasmodium falciparum
# From the text: as §1, §2, §3, §4, §5
# sphingomyelin synthase = settings: background section; read-out: IC50 sphingomyelin synthase activity in RBCs; cited from earlier work
# P. knowlesi H strain = experiment: [3H]-labeled hypoxanthine uptake assay, P. knowlesi; type: cell-based; settings: Plasmodium knowlesi; Table 1; compounds dissolved in 70% ethanol, not BSA-conjugated
# From the text: as §1, with “class. The data were generated with the known antimalarial drugs chloroquine and mefloquine as controls.” for “class.”
# The H strain of P. knowlesi has been adapted to in vitro culture using Macaca mulatta (rhesus monkey) RBCs essentially as described in Kocken et al., Infect Immun 2002, 70 (2), 655-60 (the media was supplemented with 10% human AB serum).
# Chloroquine (Sigma) and mefloquine (Sigma) were used as controls. Compounds in Table 1 were dissolved in 70% 200-proof pharmaceutical grade ethanol, and a working solution of 0.2 mg/mL was prepared using hypoxanthine- and gentamicin-free incomplete RPMI 1640 (Gibco). Compounds in Table 2 were dissolved in 200 proof pharmaceutical grade ethanol at a concentration of 50 μM and then conjugated to BSA (Sigma) as described.^5 A working solution of 0.2 mg/mL was prepared using hypoxanthine- and gentamicin-free incomplete RPMI 1640 (Gibco). Two compounds were tested per plate in triplicate starting at 0.2 mg/mL and diluted two-fold down to 0.019 μg/mL using hypoxanthine- and gentamicin-free RPMI.
# as §4, §5
# [3] = Mouse PK studies (plasma and RBC levels); type: in vivo; settings: mice; for PK dose proportionality / plasma half-lives: p.o. 10 or 30 mg/kg single dose
# Protocol: Enigmol (E) or N-Methyl-enigmol (NME) were dissolved as 10× stocks in ethanol, then diluted 1:10 in olive oil the day before dosing; dosing solutions were stored at room temperature overnight. Male mice, CD-1 or Swiss Webster (20 to 30 g), were dosed p.o. at either 10 or 30 mg/kg and 5 ml/kg (n=3/time point). For single dose studies with E and NME, bloods were sampled at 0.5, 1, 2, 4, 6, 8, 16 & 24 hrs. For the 5 day repeat dose study with E, samples were taken on day 5 at 0 (trough) 0.5, 1, 2, 4, 6, 8 & 24 hrs. Blood (˜0.3 ml) was obtained either from the submandibular vein using a 4 mm Small Animal Lancet (MEDIpoint), or by retro-orbital bleeding into 200 uL glass micropipettes (Drummond) under isoflurane anesthesia. Each mouse was sampled once and blood transferred immediately to 0.5 ml K EDTA or Li heparin microtainers (BD) in ice water. Tubes were centrifuged at 2000×g for 10 min in a refrigerated centrifuge to separate plasma from RBCs. The plasma supernatants and RBC pellets (when taken) were transferred into separate 1.5 mL Eppendorf tubes in ice water, then frozen on dry ice and stored at −80° C. prior to analysis by LC/MS/MS. Mouse plasma determinations of Enigmol and N-methylenigmol were done using a bioanalytical assay method consisting of a protein precipitation sample preparation step followed by analysis on an AB SCIEX QTRAP® 5500 LC/MS/MS System. The method employed an internal standard (ISTD) spiking technique with D17:0 sphinganine as the ISTD. The lower limit of quantitation (LLOQ) for the assay method was 10 ng/mL and the upper limit of quantitation (ULOQ) for the assay method was 1,000 ng/mL for both Enigmol and N-methylenigmol. Each bioanalytical run consisted of eight matrixes (mouse plasma) spiked calibration standards and six matrixes spiked quality control (QC) samples at three levels (30 ng/mL, 500 ng/mL, and 900 ng/mL) in duplicate along with unknown mouse study samples. […] Estimates of pharmacokinetic parameters from the single dose (10 mg/kg and 30 mg/kg PO) mouse studies were determined using WinNonlin® (Pharsight, Version 5.3).
# [4] = test system: P. falciparum W2 strain parasites; experiment: Morphological changes and parasitemia upon incubation, Giemsa-stained thin blood smears; type: cell-based
# Protocol: Upon preliminary examination, morphological changes were detected in the P. falciparum W2 strain parasites after incubation of the cultures with N-Methylenigmol (ESPD-507). The effect was evident between 28 h and 48 h of incubation, with a quantitatively high percentage of various aberrant or stunted forms of ring-stage and trophozoite-stage parasites found on Giemsa-stained thin blood smears (see black arrows in FIG. 2 at 28 h highlighting the presence of abundant ring-stage parasites and at 48 h, noting a vacuolated appearance of trophozoite-stage parasites). These findings can be contrasted with the normal growth, development, and maturation of the parasites without the drug.
# By the 48 hour time point, the parasitemia increased from 1% to 5.8+/−0.5% with healthy appearing parasites in the control samples, as expected, while it remained at 1.3+/−0.3% and with aberrant parasite forms in the sample incubated with N-Methylenigmol (Table 2). The relative percentages of rings, trophozoites and schizonts in the cultures with and without the ESPD 507 compound were 41.9%, 39.2% and 18.9% versus 87.9%, 4.2% and 8.05, respectively.
# Samples were removed every 4 h and thin blood smears were prepared, stained with modified Giemsa stain, and analyzed by light microscopy for morphological changes in growth and development. The modular incubator used was gassed and returned to 37° C. in less than 5 minutes to avoid delay in parasite growth.
# [5] = Mouse tumor concentrations (human prostate cancer xenograft); type: in vivo, Nude mice; parameters: unit not given here; settings: tumors harvested, LC/MS/MS
# From the text: Nude mice were subjected to human prostate cancer xenograft procedures, and resulting tumors were allowed to grow for 16 days. […] Once the scheduled time course had passed, the mice were sacrificed. Tumors were harvested, homogenized, and analyzed by LC/MS/MS for tumor-drug concentration.
# [6] = test system: PC-3 prostate cancer cells; experiment: WST-1 cytotoxicity assay, PC-3; type: cell-based; settings: 24 h treatment
# Protocol: (§6) Prostate cancer cells were treated with enigmol or analogue for 24 h, and cytotoxicity was assessed by WST-1 assay. cLogPs were calculated with QuikProp on Maestro.
# [7] = test system: LNCaP prostate cancer cells; experiment: WST-1 cytotoxicity assay, LNCaP; type: cell-based; settings: Homo sapiens, 24 h treatment
# Protocol: as §6
# [8] = D6, Table 2, compounds conjugated to BSA
# [9] = W2, Table 2, compounds conjugated to BSA, read-out: IC50 W2
# [10] = D6, Table 1, compounds dissolved in 70% ethanol, not BSA-conjugated
# [11] = W2, Table 1, compounds dissolved in 70% ethanol, not BSA-conjugated, read-out: IC50 W2
"IC50 [1, 8] [µM]","IC50 [2, 9] [µM]","IC50 [1, 10] [µM]","IC50 [2, 11] [µM]",IC50 (P. knowlesi H strain) [µM],volumes of distribution [3],PK dose proportionality [3],plasma half-lives [3],tumor-drug concentration ([5]; 3 mg/kg p.o. once daily),tumor-drug concentration ([5]; 10 mg/kg p.o. once daily),Compound,also measured
1.7 ± 1,0.9 ± 0.35,4.7 ± 0.1,1.58 ± 0.13,1.72 ± 0.01,large,dose proportional,long,,,"CCCCCCCCCCCCC[C@H](O)C[C@H](O)[C@H](C)NC [ESPD-0507, N-Methylenigmol]","IC50 ([2]; W2, text b183, 546.94 ng/mL used for the morphology study, W2, read-out: IC50): 1.73 µM; parasitemia ([4]; 48 hour time point, start 1%, compound at 546.94 ng/mL): 1.3+/−0.3%; relative percentage of rings ([4]; culture with compound, 48 h): 41.9%; relative percentage of schizonts ([4]; culture with compound, 48 h): 18.9%; relative percentage of trophozoites ([4]; culture with compound, 48 h): 39.2%"
5.3 ± 1,9.2 ± 2,12.6 ± 2.4,7.37 ± 1.5,10.5 ± 0.38,large,dose proportional,long,317,1565,"CCCCCCCCCCCCC[C@H](O)C[C@H](O)[C@H](C)N [ESPD-0500, (2S,3S,5S)-2-aminooctadecane-3,5-diol]","IC50 ([2]; W2, text b101, summary over W2 and D6 strains, read-out: IC50 / anti-malarial activity on both W2 and D6 strains): 7 to 12 µM; IC50 [6]: 10 µM; Kp at 5 day ([3]; male, mouse, red blood cells (RBC) relative to plasma, po, 30 mg/kg, 30 mg/kg orally once per day, after 5th day of dosing, read-out: drug concentrations in RBCs relative to plasma levels): ~3; plasma levels increase from accumulation ([3]; 30 mg/kg orally once per day, after 5th day of dosing): about 30%; IC50 [7]: 13 µM"

# Continued, compound first:
Compound,"IC50 [1, 8] [µM]","IC50 [2, 9] [µM]","IC50 [1, 10] [µM]","IC50 [2, 11] [µM]",IC50 (P. knowlesi H strain) [µM],volumes of distribution [3],PK dose proportionality [3],plasma half-lives [3],tumor-drug concentration ([5]; 3 mg/kg p.o. once daily),tumor-drug concentration ([5]; 10 mg/kg p.o. once daily),also measured
"CCCCCCCCCCCCC[C@H](O)CC(=O)C(C)(C)N [ESPD-0562, (S)-2-amino-5-hydroxy-2-methyloctadecan-3-one]",2.5 ± 0.1,2.6 ± 1.5,,,,,,,,,melting point: 31 to 33 °C
"CCCCCCCCCCCCCCCC(=O)NC(CN1CCOCC1)C(O)c1ccccc1 (stereo not drawn) [threo-PPMP, phenyl-2-palmitoylamino-3-morpholino-1-propanol]",,,,,,,,,,,IC50 (sphingomyelin synthase): 0.85 µM
"C[C@H](N)[C@@H](O)C[C@@H](O)CCCCCCCCCCCCC(F)(F)F [CF3-Enigmol, (2S,3S,5S)-2-amino-18,18,18-trifluorooctadecane-3,5-diol]",,,,,,,,,1147,9004,
